Each structure is given as a SMILES string.

The assay deals with Monocotyledonous and dicotyledonous weed seeds and main crop seeds. Put plainly: Post-emergence test experiment, other weeds and crops (Table 4, 1000 g a.i./ha). It counts as in vivo. The following applies: 3 weeks in greenhouse, fresh weight inhibition. On the procedure: The above described growth inhibition rate is fresh weight inhibition rate.
Post-emergence test experiment: Monocotyledonous and dicotyledonous weed seeds and main crop seeds (i. e. wheat, corn, rice, soybean, cotton, oilseed, millet and sorghum.) were put into a plastic pot loaded with soil. Then covered with 0.5-2 cm soil, the seeds were allowed to grow in good greenhouse environment. The test plants were treated at 2-3 leaf stage 2 weeks after sowing. The test compounds of the invention were dissolved with acetone respectively, then added with tween-80, and using 1.5 liters per hectare of an emulsible concentrate of methyl oleate as a synergist, and diluted by certain amount of water to certain concentration. The solution was sprayed to the plants with a sprayer.

Consider `COC(=O)C(CC(F)(F)F)Oc1nc(F)c(Cl)c(N)c1Cl` (stereo not drawn) [Compound 2-40], for which the “Activity level (growth inhibition rate), Abutilon theophrasti Medic.” value is given as 5 (Level 5: the growth inhibition rate is greater than 85%); the “Activity level (growth inhibition rate), Galium aparine” value is recorded as 5 (Level 5: the growth inhibition rate is greater than 85%); the “Activity level (growth inhibition rate), Monochoria Vaginalis” value is given as 5 (Level 5: the growth inhibition rate is greater than 85%).

Turning to `COC(=O)C(CCl)Oc1nc(F)c(Cl)c(N)c1Cl` (stereo not drawn) [Compound 2-41], the “Activity level (growth inhibition rate), Abutilon theophrasti Medic.” value is listed as 5 (Level 5: the growth inhibition rate is greater than 85%); the “Activity level (growth inhibition rate), Galium aparine” value was 5 (Level 5: the growth inhibition rate is greater than 85%); the “Activity level (growth inhibition rate), Monochoria Vaginalis” value was 5 (Level 5: the growth inhibition rate is greater than 85%).

For `COC(=O)C(CCCl)Oc1nc(F)c(Cl)c(N)c1Cl` (stereo not drawn) [Compound 2-42], the “Activity level (growth inhibition rate), Abutilon theophrasti Medic.” value is 5 (Level 5: the growth inhibition rate is greater than 85%); the “Activity level (growth inhibition rate), Galium aparine” value was 5 (Level 5: the growth inhibition rate is greater than 85%); the “Activity level (growth inhibition rate), Monochoria Vaginalis” value is 5 (Level 5: the growth inhibition rate is greater than 85%).

On to `COC(=O)C(CF)Oc1nc(F)c(Cl)c(N)c1Cl` (stereo not drawn) [Compound 2-43], for which the “Activity level (growth inhibition rate), Abutilon theophrasti Medic.” value was 5 (Level 5: the growth inhibition rate is greater than 85%); the “Activity level (growth inhibition rate), Galium aparine” value is 5 (Level 5: the growth inhibition rate is greater than 85%); the “Activity level (growth inhibition rate), Monochoria Vaginalis” value is reported as 5 (Level 5: the growth inhibition rate is greater than 85%).

In the case of `COC(=O)C(Oc1nc(F)c(Cl)c(N)c1Cl)C(F)F` (stereo not drawn) [Compound 2-44], the “Activity level (growth inhibition rate), Abutilon theophrasti Medic.” value was 5 (Level 5: the growth inhibition rate is greater than 85%); the “Activity level (growth inhibition rate), Galium aparine” value is reported as 5 (Level 5: the growth inhibition rate is greater than 85%); the “Activity level (growth inhibition rate), Monochoria Vaginalis” value was 5 (Level 5: the growth inhibition rate is greater than 85%).

Consider `C=C[C@@H](Oc1nc(F)c(Cl)c(N)c1Cl)C(=O)OC` [Compound 2-45], for which the “Activity level (growth inhibition rate), Abutilon theophrasti Medic.” value is given as 5 (Level 5: the growth inhibition rate is greater than 85%); the “Activity level (growth inhibition rate), Galium aparine” value is 5 (Level 5: the growth inhibition rate is greater than 85%); the “Activity level (growth inhibition rate), Monochoria Vaginalis” value is 5 (Level 5: the growth inhibition rate is greater than 85%).

Take `C#CC(Oc1nc(F)c(Cl)c(N)c1Cl)C(=O)OC` (stereo not drawn) [Compound 2-46]: the “Activity level (growth inhibition rate), Abutilon theophrasti Medic.” value is 5 (Level 5: the growth inhibition rate is greater than 85%); the “Activity level (growth inhibition rate), Galium aparine” value is recorded as 5 (Level 5: the growth inhibition rate is greater than 85%); the “Activity level (growth inhibition rate), Monochoria Vaginalis” value is 5 (Level 5: the growth inhibition rate is greater than 85%).

As to `COC(=O)C(Oc1nc(F)c(Cl)c(N)c1Cl)C(=O)OC` [Compound 2-47], the “Activity level (growth inhibition rate), Abutilon theophrasti Medic.” value is given as 5 (Level 5: the growth inhibition rate is greater than 85%); the “Activity level (growth inhibition rate), Galium aparine” value is given as 5 (Level 5: the growth inhibition rate is greater than 85%); the “Activity level (growth inhibition rate), Monochoria Vaginalis” value is 5 (Level 5: the growth inhibition rate is greater than 85%).

In the case of `COC(=O)C(C=O)Oc1nc(F)c(Cl)c(N)c1Cl` (stereo not drawn) [Compound 2-48], the “Activity level (growth inhibition rate), Abutilon theophrasti Medic.” value is reported as 5 (Level 5: the growth inhibition rate is greater than 85%); the “Activity level (growth inhibition rate), Galium aparine” value is given as 5 (Level 5: the growth inhibition rate is greater than 85%); the “Activity level (growth inhibition rate), Monochoria Vaginalis” value is listed as 5 (Level 5: the growth inhibition rate is greater than 85%).

In the case of `COC(=O)C(CO)Oc1nc(F)c(Cl)c(N)c1Cl` (stereo not drawn) [Compound 2-49], the “Activity level (growth inhibition rate), Abutilon theophrasti Medic.” value is 5 (Level 5: the growth inhibition rate is greater than 85%); the “Activity level (growth inhibition rate), Galium aparine” value is 5 (Level 5: the growth inhibition rate is greater than 85%); the “Activity level (growth inhibition rate), Monochoria Vaginalis” value was 5 (Level 5: the growth inhibition rate is greater than 85%).

(Values after patent publication US12304890B2, “R-type pyridyloxycarboxylic acid, salt and ester derivative thereof, and preparation method therefor, and herbicidal composition and application thereof” (Qingdao Kingagroot Chemical Compound Co., Ltd., priority 2018, dated 2025).)
